Source: US20200010903A1, “AAV-Mediated Direct In vivo CRISPR Screen in Glioblastoma” (YALE UNIVERSITY, priority 2017, published 2020)

Key:
Type in all cases: cell-based, mouse
Rb1; Zc3h13 GBM cells = assay: RNA-seq differential expression, TMZ vs DMSO; settings: 1 mM TMZ vs DMSO, 48 h
Description: (§1) Temozolomide (TMZ) treatment, Cell viability assay, and RNAseq: After 7-9 days' culture under puromycin selection, lentiviruses-infected Nf1 and Rb1 knockout tumor cells were plated in triplicates into 96-well plate at a density of 2.5×10^3 cells per well, and ˜5×10^6 cells were collected at the same time and used for cutting efficiency analysis. One day after plating, either TMZ or DMSO was added at a concentration of 10 μM, 100 μM, 500 μM, 1 mM, and 2 mM. After 3 days of drug/vehicle treatment, cell viability was measured using CellTiter Glo (Promega) according to the manufactures' protocol. Briefly, the CellTiter Glo was equilibrated at room temperature for 1 h before use. The media of 96-well plates was aspirated, and then 50 μL fresh DMEM+10% FBS and 50 μL CellTiter Glo was added. The luminescent signals were readout using EnVision plate reader (PerkinElmer). For RNAseq samples preparation, cell lines harboring specific gene knockouts were cultured for 7-9 days under the selection pressure of puromycin, and then plated into 6-well plates at a density of 2×10^5 cells per well in triplicates. 24 h after plating, 1 mM TMZ or DMSO in fresh DEME+10% FBS was added and cultured for another 48 h. Then, cellular RNA of control or treated cells were extracted by adding 350 μL TRIzol Reagent (Invitrogen) directly into 6-well plates to lyse the cells, followed by gently shaking the plates and incubation for 5-10 min to complete and lysis and homogenization. Then, 70 μL chloroform was added, vigorously mixed, and centrifuged at 16,000 g for 15 min. Transfer the RNA containing aqueous phase to a new tube and further purified using RNeasy mini kit (Qiagen). After eluting RNA from column using Nuclease free water, the concentrations of sample RNA were normalized into 150-300 ng/uL for RNAseq.
(§2) Transcriptome profiling of different driver combinations in the presence and absence of chemotherapy: Mixtures of five sgRNAs targeting each gene were cloned as sgRNA minipool into the same astrocyte-specific AAV-CRISPR vector. After packaging, AAV minipools were stereotaxically injected into the lateral ventricle of LSL-Cas9 mice. Cell lines were derived from mouse GBMs by single-cell isolation, plating and culture in DMEM media. Additional driver mutations were introduced by lentiCRISPR where applicable. GBM cells with different drivers were treated with DMSO or TMZ for 48 h, and harvested for mRNA-seq for transcriptome profiling. Briefly, total RNA was extracted from cancer cells derived from AAV-CRISPR minipools induced GBM treated with DMSO or TMZ, using commercially available kits (Qiagen/Thermofisher). PolyA-mRNA library was constructed using Illumina TruSeq mRNA library prep kit, and sequenced on Illumina Hiseq 2500 and/or Hiseq 4000 platform.
(§3) RNA-seq differential expression analysis: Strand-specific single-end RNA-seq read files were analyzed to obtain transcript level counts using Kallisto, with the settings --rf-stranded -b 100. The counts were subsequently passed to the tximport R package to collapse to gene level counts. Pairwise differential expression analysis between groups was then performed using edgeR with default settings.

Rb1 GBM cells = assay: RNA-seq differential expression, TMZ vs DMSO; settings: 1 mM TMZ vs DMSO, 48 h
Description: as §1, §2, §3

Rb1; Pten GBM cells = assay: RNA-seq differential expression, TMZ vs DMSO; settings: 1 mM TMZ vs DMSO, 48 h
Description: as §1, §2, §3

[1] = system: Rb1, Rb1; Pten, and Rb1; Zc3h13 GBM cells; assay: RNA-seq TMZ vs DMSO, overlap of differentially expressed genes between genotypes
Description: as §1
as §2, with “Briefly, total RNA was extracted from cancer cells derived from AAV-CRISPR minipools induced GBM treated with DMSO or TMZ, using commercially available kits (Qiagen/Thermofisher). PolyA-mRNA library was constructed using Illumina TruSeq mRNA library prep kit, and sequenced on Illumina Hiseq 2500 and/or Hiseq 4000 platform.” left out
RNA-seq differential expression analysis: Strand-specific single-end RNA-seq read files were analyzed to obtain transcript level counts using Kallisto, with the settings --rf-stranded -b 100. […]

[2] = shared by Rb1, Rb1, Pten, Rb1, Zc3h13

## Cn1nnc2c(C(N)=O)ncn2c1=O [TMZ, temozolomide]
Rb1; Zc3h13 GBM cells
  genes significantly higher in DMSO-treated cells: 166 genes
  genes significantly higher in TMZ-treated cells: 703 genes
Rb1 GBM cells
  genes significantly higher in DMSO-treated cells (TMZ-reduced genes): 332 genes
Rb1 GBM cells; adjusted p<0.05, log fold change ≥1 or ≤−1
  genes significantly higher in TMZ-treated cells (TMZ-induced genes): 352 genes
Rb1; Pten GBM cells
  genes significantly higher in DMSO-treated cells: 313 genes
  genes significantly higher in TMZ-treated cells: 345 genes
[1]
  genes significantly reduced upon TMZ treatment in Rb1; Zc3h13 and Rb1; Pten cells, but not in Rb1 cells: 37 genes
  genes upregulated upon TMZ treatment in Rb1; Zc3h13 and Rb1; Pten cells, but not in Rb1 cells: 60 genes
[1]; [2]
  genes downregulated among all 3 genotypes upon TMZ treatment: 69 genes
  genes upregulated in all 3 groups upon TMZ treatment: 42 genes
